Data on 1 compound can be found in patent US20060089317A1, “Treatment of metastatic breast cancer with anthracyclines, and taxanes” (The University Of Manitoba, priority 2002, published 2006).

The subject of this assay is patients with metastatic breast cancer. The following applies: DPPE pretreatment.

Procedure: In the specific Phase II clinical trial described herein, there was employed 6 mg/kg of DPPE in the form of its hydrochloride salt, administered intravenously as an aqueous solution thereof over 80 minutes, with the last 20 minutes being accompanied by infusion of the chemotherapeutic agents doxorubicin or epirubicin in combination with Taxol or Taxotere followed by the intravenous administration of an aqueous solution at a dose of 2.5 mg/kg of DPPE for 180 minutes accompanied by the infusion of Taxol or for 60 minutes accompanied by the infusion of Taxotere.
In the specific Phase II clinical trial described herein, there was employed 50 mg/M^2 of doxorubicin/epirubicin and either 175 mg/^2 Taxol or 75 mg/M^2 Taxotere administered over the last 20 minutes of infusion of the DPPE solution and over a further 180 minutes for Taxol or 60 minutes for Taxotere, accompanied by infusion of a 2.5 mg/kg of DPPE solution.
29 patients with metastatic breast cancer were treated with a combination of DPPE and epirubicin/Taxol (N=22), DPPE and doxorubicin/Taxol (N=6) or a combination of DPPE and epirubicin/Taxotere (N=1). […]

Consider `CCN(CC)CCOc1ccc(Cc2ccccc2)cc1` [DPPE, N,N-diethyl-2-[4-(phenylmethyl)-phenoxy]ethanamine], for which the “TTP in comparison to patients not receiving DPPE treatment” value is “did not improve”. In addition, the “overall survival of patients receiving DPPE” value (compared with published studies) is on record as “significantly improved”.
